Test results reported in patent US20020137929A1, “1 - (3-heterocyclylphenyl) isothiourea, -isourea, -guanidine and -amidine herbicidal agents” (Intellectual Property Department, BASF Aktiengesellschaft, priority 1998, published 2002).

How the values were obtained:
[1] = test system: ECHCG (Barnyardgrass); assay: Postemergence herbicidal evaluation; type: in vivo, Echinochloa crus-galli
Method in brief: (§1)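 Scores (0–9) reflect plant stand, vigor, malformation, size, chlorosis and general appearance relative to control, read 4 to 5 weeks after treatment and averaged where tests were repeated. Application: about 0.0156–0.500 kg/ha sprayed at 40 psi onto two-week seedlings.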

[2] = test system: ECHORC (Watergrass (Calif.)); assay: Preemergence weed control under flooded paddy conditions; type: in vivo, Echinochloa oryzoides; conditions: rated 3-4 weeks after treatment
Method in brief: (§2)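 Ratings on a 0-9 visual scale cover stand, vigor, malformation, size, chlorosis and overall appearance relative to a control, taken three to four weeks post-treatment. Application was into flood water over freshly sown silt loam at roughly 0.0313 to 0.500 kg/ha.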

[3] = test system: CYPIR (Rice Flatsedge); assay: Postemergence weed control under flooded paddy conditions; type: in vivo, Cyperus iria; conditions: postemergence weeds
Method in brief: (§3)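 Flood-water application, about 0.0313–0.500 kg/ha a.i. in aqueous/acetone 50/50 v/v; water depth 1.5–3 cm throughout. Weeds 3–5 cm, rice 1.5–2.5 leaf. Greenhouse; 0–9 visual rating vs control at 3–4 wk.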

[4] = test system: SAGPY (Arrowhead (Pygmaea)); assay: as above; type: in vivo, Sagittaria pygmaea; conditions: postemergence weeds
Method in brief: as §3

[5] = test system: ORYSAT (Rice, Tebonnet); assay: Postemergence herbicidal evaluation; type: in vivo, Oryza sativa, (L.) Tebonnet
Method in brief: as §1

[6] = test system: ZEAMX (Corn, Field); assay: Preemergence herbicidal evaluation; type: in vivo, Zea mays; conditions: rated 4-5 weeks after treatment
Method in brief: (§4)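 Visual 0-9 rating vs control (stand, vigor, malformation, size, chlorosis, overall appearance), scored 4-5 wk after spraying. Seeded soil cups were treated preemergence with compound in aqueous acetone, ~0.0156-0.500 kg/ha equivalent.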

[7] = test system: IPOHE (Morningglory, Ivyleaf); assay: Preemergence herbicidal evaluation; type: in vivo, Ipomoea hederacea; conditions: rated 4-5 weeks after treatment
Method in brief: as §4

[8] = test system: CYPSE (Flatsedge); assay: Postemergence weed control under flooded paddy conditions; type: in vivo, Cyperus serotinus; conditions: postemergence weeds
Method in brief: as §3

[9] = test system: MOOVA (Monochoria); assay: Preemergence weed control under flooded paddy conditions; type: in vivo, Monochoria vaginalis; conditions: rated 3-4 weeks after treatment
Method in brief: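 First, seeds or propagules go into the top 0.5 cm of silt loam; next, water is held 1.5 to 3 cm over the soil; then compound (50/50 acetone/water) is pipetted into it at about 0.0313 to 0.500 kg/ha; finally plants are rated visually 0-9 after three to four weeks.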

[10] = test system: GALAP (Galium); assay: Postemergence herbicidal evaluation; type: in vivo, Galium aparine
Method in brief: as §1

[11] = test system: SETVI (Foxtail, Green); assay: Postemergence herbicidal evaluation; type: in vivo, Setaria viridis
Method in brief: as §1

[12] = test system: ABUTH (Velvetleaf); assay: Postemergence herbicidal evaluation; type: in vivo, Abutilon theophrasti
Method in brief: as §1

[13] = test system: CYPIR (Rice Flatsedge); assay: Preemergence weed control under flooded paddy conditions; type: in vivo, Cyperus iria; conditions: rated 3-4 weeks after treatment
Method in brief: as §2

[14] = test system: TRZAWR (Wheat, Winter, cv Riband); assay: Preemergence herbicidal evaluation; type: in vivo, Triticum aestivum; conditions: rated 4-5 weeks after treatment
Method in brief: as §4

[15] = rate 0.0313 kg/ha, 3-4 weeks after treatment
[16] = rate 0.0625 kg/ha, 3-4 weeks after treatment
[17] = rate 0.1250 kg/ha, 3-4 weeks after treatment
[18] = rate 0.2500 kg/ha, 3-4 weeks after treatment
[19] = Rate 0.0313 kg/ha, rated 3 to 4 weeks after treatment
[20] = Rate 0.0625 kg/ha, rated 3 to 4 weeks after treatment
[21] = Rate 0.1250 kg/ha, rated 3 to 4 weeks after treatment
[22] = Rate 0.2500 kg/ha, rated 3 to 4 weeks after treatment

## CCOC(=O)CN1C(=O)C[S+]([O-])/C1=N/c1cc(-n2c(=O)cc(C(F)(F)F)n(C)c2=O)c(F)cc1Cl (stereo not shown) [Compound 45, 2-{{2-Chloro-5-[3,6-dihydro-3-methyl-2,6-dioxo-4-(trifluoromethyl)-1(2H)-pyrimidinyl]-4-fluoro-phenyl}imino}-4-oxo-3-thiazolidineacetic acid, ethyl ester, 1-oxide]
[1]; Rate 0.0156 kg/ha
  Postemergence herbicidal rating ECHCG: 0.0
[1]; Rate 0.0313 kg/ha
  Postemergence herbicidal rating ECHCG: 0.0
[1]; Rate 0.0625 kg/ha
  Postemergence herbicidal rating ECHCG: 0.0
[2]; 0.0313 kg/ha
  Herbicidal rating ECHORC: 3.0
[2]; 0.0625 kg/ha
  Herbicidal rating ECHORC: 4.0
[2]; 0.1250 kg/ha
  Herbicidal rating ECHORC: 7.0
[2]; 0.2500 kg/ha
  Herbicidal rating ECHORC: 7.0
[3]; [15]
  Herbicidal rating CYPIR: 0.0
[3]; [16]
  Herbicidal rating CYPIR: 3.0
[3]; [17]
  Herbicidal rating CYPIR: 7.0
[3]; [18]
  Herbicidal rating CYPIR: 7.0
[4]; [15]
  Herbicidal rating SAGPY: 0.0
[4]; [16]
  Herbicidal rating SAGPY: 0.0
[4]; [17]
  Herbicidal rating SAGPY: 0.0
[4]; [18]
  Herbicidal rating SAGPY: 4.0
[5]; Rate 0.0156 kg/ha
  Postemergence herbicidal rating ORYSAT: 1.5
[5]; Rate 0.0313 kg/ha
  Postemergence herbicidal rating ORYSAT: 1.5
[5]; Rate 0.0625 kg/ha
  Postemergence herbicidal rating ORYSAT: 2.0
[6]; rate 0.0156 kg/ha
  Preemergence herbicidal rating ZEAMX: 0.0
[6]; rate 0.0313 kg/ha
  Preemergence herbicidal rating ZEAMX: 0.0
[6]; rate 0.0625 kg/ha
  Preemergence herbicidal rating ZEAMX: 0.0
[6]; rate 0.1250 kg/ha
  Preemergence herbicidal rating ZEAMX: 2.0
[6]; rate 0.2500 kg/ha
  Preemergence herbicidal rating ZEAMX: 4.0
[7]; rate 0.0156 kg/ha
  Preemergence herbicidal rating IPOHE: 0.0
[7]; rate 0.0313 kg/ha
  Preemergence herbicidal rating IPOHE: 0.0
[7]; rate 0.0625 kg/ha
  Preemergence herbicidal rating IPOHE: 0.0
[7]; rate 0.1250 kg/ha
  Preemergence herbicidal rating IPOHE: 0.0
[7]; rate 0.2500 kg/ha
  Preemergence herbicidal rating IPOHE: 1.0
[8]; [15]
  Herbicidal rating CYPSE: 0.0
[8]; [16]
  Herbicidal rating CYPSE: 0.0
[8]; [18]
  Herbicidal rating CYPSE: 0.0
[9]; 0.0313 kg/ha
  Herbicidal rating MOOVA: 7.0
[9]; 0.0625 kg/ha
  Herbicidal rating MOOVA: 7.0
[9]; 0.1250 kg/ha
  Herbicidal rating MOOVA: 9.0
[9]; 0.2500 kg/ha
  Herbicidal rating MOOVA: 9.0
[10]; Rate 0.0156 kg/ha
  Postemergence herbicidal rating GALAP: 0.0
[10]; Rate 0.0313 kg/ha
  Postemergence herbicidal rating GALAP: 0.0
[10]; Rate 0.0625 kg/ha
  Postemergence herbicidal rating GALAP: 0.0
[11]; Rate 0.0156 kg/ha
  Postemergence herbicidal rating SETVI: 0.0
[11]; Rate 0.0313 kg/ha
  Postemergence herbicidal rating SETVI: 0.0
[11]; Rate 0.0625 kg/ha
  Postemergence herbicidal rating SETVI: 2.0
[12]; Rate 0.0156 kg/ha
  Postemergence herbicidal rating ABUTH: 9.0
[12]; Rate 0.0313 kg/ha
  Postemergence herbicidal rating ABUTH: 9.0
[12]; Rate 0.0625 kg/ha
  Postemergence herbicidal rating ABUTH: 9.0
[13]; 0.0313 kg/ha
  Herbicidal rating CYPIR: 0.0
[13]; 0.0625 kg/ha
  Herbicidal rating CYPIR: 3.0
[13]; 0.1250 kg/ha
  Herbicidal rating CYPIR: 7.0
[13]; 0.2500 kg/ha
  Herbicidal rating CYPIR: 7.0
[14]; rate 0.0156 kg/ha
  Preemergence herbicidal rating TRZAWR: 0.0
[14]; rate 0.0313 kg/ha
  Preemergence herbicidal rating TRZAWR: 0.0
[14]; rate 0.0625 kg/ha
  Preemergence herbicidal rating TRZAWR: 0.0
[14]; rate 0.1250 kg/ha
  Preemergence herbicidal rating TRZAWR: 2.0
[14]; rate 0.2500 kg/ha
  Preemergence herbicidal rating TRZAWR: 5.0

## CCOC(=O)CN1C(=O)C(CC(=O)OC(C)C)SC1=Nc1cc(-n2c(=O)cc(C(F)(F)F)n(C)c2=O)c(F)cc1Cl (stereo not shown) [Compound 60, 2-{{2-Chloro-5-[3,6-dihydro-3-methyl-2,6-dioxo-4-(trifluoromethyl)-1(2H)-pyrimidinyl]-4-fluoro-phenyl}imino}-4-oxo-3,5-thiazolidinediacetic acid, 3-ethyl isopropyl ester]
[1]; Rate 0.0158 kg/ha
  Postemergence herbicidal rating ECHCG: 0.0
[1]; Rate 0.0315 kg/ha
  Postemergence herbicidal rating ECHCG: 0.0
[1]; Rate 0.0630 kg/ha
  Postemergence herbicidal rating ECHCG: 0.0
[2]; 0.0313 kg/ha
  ECHORC herbicidal effect rating: 7.0
[2]; 0.0625 kg/ha
  ECHORC herbicidal effect rating: 9.0
[2]; 0.1250 kg/ha
  ECHORC herbicidal effect rating: 9.0
[2]; 0.2500 kg/ha
  ECHORC herbicidal effect rating: 9.0
[3]; [19]
  Herbicidal rating CYPIR: 3.0
[3]; [20]
  Herbicidal rating CYPIR: 3.0
[3]; [21]
  Herbicidal rating CYPIR: 6.0
[3]; [22]
  Herbicidal rating CYPIR: 6.0
[4]; [19]
  Herbicidal rating SAGPY: 3.0
[4]; [20]
  Herbicidal rating SAGPY: 4.0
[4]; [21]
  Herbicidal rating SAGPY: 9.0
[4]; [22]
  Herbicidal rating SAGPY: 9.0
[5]; Rate 0.0158 kg/ha
  Postemergence herbicidal rating ORYSAT: 3.0
[5]; Rate 0.0315 kg/ha
  Postemergence herbicidal rating ORYSAT: 3.0
[5]; Rate 0.0630 kg/ha
  Postemergence herbicidal rating ORYSAT: 5.0
[6]; rate 0.0156 kg/ha
  Preemergence herbicidal rating ZEAMX: 0.0
[6]; rate 0.0313 kg/ha
  Preemergence herbicidal rating ZEAMX: 0.0
[6]; rate 0.0625 kg/ha
  Preemergence herbicidal rating ZEAMX: 0.5
[6]; rate 0.1250 kg/ha
  Preemergence herbicidal rating ZEAMX: 1.5
[6]; rate 0.2500 kg/ha
  Preemergence herbicidal rating ZEAMX: 3.0
[6]; rate 0.5000 kg/ha
  Preemergence herbicidal rating ZEAMX: 8.0
[7]; rate 0.0156 kg/ha
  Preemergence herbicidal rating IPOHE: 0.0
[7]; rate 0.0313 kg/ha
  Preemergence herbicidal rating IPOHE: 0.0
[7]; rate 0.0625 kg/ha
  Preemergence herbicidal rating IPOHE: 0.0
[7]; rate 0.1250 kg/ha
  Preemergence herbicidal rating IPOHE: 2.0
[7]; rate 0.2500 kg/ha
  Preemergence herbicidal rating IPOHE: 5.0
[7]; rate 0.5000 kg/ha
  Preemergence herbicidal rating IPOHE: 9.0
[8]; [19]
  Herbicidal rating CYPSE: 2.0
[8]; [20]
  Herbicidal rating CYPSE: 2.0
[8]; [21]
  Herbicidal rating CYPSE: 4.0
[8]; [22]
  Herbicidal rating CYPSE: 4.0
[9]; 0.0313 kg/ha
  MOOVA herbicidal effect rating: 9.0
[9]; 0.0625 kg/ha
  MOOVA herbicidal effect rating: 9.0
[9]; 0.1250 kg/ha
  MOOVA herbicidal effect rating: 9.0
[9]; 0.2500 kg/ha
  MOOVA herbicidal effect rating: 9.0
[10]; Rate 0.0158 kg/ha
  Postemergence herbicidal rating GALAP: 0.0
[10]; Rate 0.0315 kg/ha
  Postemergence herbicidal rating GALAP: 2.0
[10]; Rate 0.0630 kg/ha
  Postemergence herbicidal rating GALAP: 5.0
[11]; Rate 0.0158 kg/ha
  Postemergence herbicidal rating SETVI: 0.0
[11]; Rate 0.0315 kg/ha
  Postemergence herbicidal rating SETVI: 4.0
[11]; Rate 0.0630 kg/ha
  Postemergence herbicidal rating SETVI: 5.0
[12]; Rate 0.0158 kg/ha
  Postemergence herbicidal rating ABUTH: 9.0
[12]; Rate 0.0315 kg/ha
  Postemergence herbicidal rating ABUTH: 9.0
[12]; Rate 0.0630 kg/ha
  Postemergence herbicidal rating ABUTH: 9.0
[13]; 0.0313 kg/ha
  CYPIR herbicidal effect rating: 3.0
[13]; 0.0625 kg/ha
  CYPIR herbicidal effect rating: 3.0
[13]; 0.1250 kg/ha
  CYPIR herbicidal effect rating: 6.0
[13]; 0.2500 kg/ha
  CYPIR herbicidal effect rating: 6.0
[14]; rate 0.0156 kg/ha
  Preemergence herbicidal rating TRZAWR: 0.0
[14]; rate 0.0313 kg/ha
  Preemergence herbicidal rating TRZAWR: 0.0
[14]; rate 0.0625 kg/ha
  Preemergence herbicidal rating TRZAWR: 0.0
[14]; rate 0.1250 kg/ha
  Preemergence herbicidal rating TRZAWR: 1.0
[14]; rate 0.2500 kg/ha
  Preemergence herbicidal rating TRZAWR: 1.0
